What all share (experiment): NCI-60 cell line screen, 48 h
Assay [1] has as its system SF-295.
For assay [2], the system named is EKVX.
In assay [3] the test system is MOLT-4.
Assay [4] deals with HOP-62.
In assay [5] the test system is HOP-92.
Assay [6] deals with COLO 205.
Assay [7] has as its system OVCAR-5.
In assay [8] the test system is NCI-H460.
For assay [9], the system named is CCRF-CEM.
The test system of assay [10] is A498.
Assay [11] has as its system SNB-19.
In assay [12] the test system is HL-60.
The test system of assay [13] is NCI-H226.
Assay [14] concerns KM12.
Assay [15] concerns SF-539.
Assay [16] has as its system ACHN.
Assay [17] deals with MDA-MB-435.
The test system of assay [18] is K562.
Assay [19] has as its system MDA-N.
Assay [20] has as its system MCF7.

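96-well plates; 48 h exposure; 5 concentrations. Endpoints by linear interpolation between flanking doses. Not reached: highest tested concentration assigned. Abbreviation: GI50, concentration required for 50% inhibition of growth.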 Calls of active or inactive are those of the source. No stated cut-off is given here; in the data, active = GI50 up to about 1.1 µM and inactive = higher.

For `CC(C)C(Sc1nc(-c2ccccc2)c(-c2ccccc2)[nH]1)C(=O)N/N=C/c1ccc(Cl)cc1` (stereo not given), the GI50 is 22.8 µM (inactive) in [1]; 22.1 µM (inactive) in assay [2]; 0.0382 µM (active) in [3]; 23.2 µM (inactive) in [4]; 21 µM (inactive) in assay [5]; 17.7 µM (inactive) in assay [6]. Moreover, the GI50 was 22.6 µM (inactive) in assay [7]; 22.7 µM (inactive) in assay [8]; 21.7 µM (inactive) in assay [9]; 22 µM (inactive) in assay [10]; 36.9 µM (inactive) in assay [11]; 26.3 µM (inactive) in assay [12]. Also, the GI50 in [13] is 17.2 µM (inactive); in assay [14] it was 19.8 µM (inactive); in [15], 21.1 µM (inactive); in [16], 31.9 µM (inactive).

On to `CCC(C)(O)c1cnc(CC(C)C)c(=O)n1O` (stereo not given), for which the GI50 in assay [1] is 36.6 µM (inactive); in assay [2], 49.4 µM (inactive); in assay [17], 57.7 µM (inactive); in assay [3] it was 21.4 µM (inactive); in assay [18], 18.5 µM (inactive); in [4], 42.9 µM (inactive). Moreover, the GI50 was 85.9 µM (inactive) in assay [5]; 54.7 µM (inactive) in assay [6]; 0.597 µM (active) in [7]; 28.1 µM (inactive) in assay [8]; 29.2 µM (inactive) in [9]; 73.5 µM (inactive) in assay [19]. Further, the GI50 in assay [10] was > 100 µM (inactive); in [11], 55.8 µM (inactive); in [14], 37.7 µM (inactive); in [16], 59.7 µM (inactive).

Turning to `NC1=C(N2CCCCC2)C(=O)NC2=N/C(=C\c3ccco3)C(=O)N21`, the GI50 in [1], in assay [2], in [17], in assay [3], in assay [18] and in assay [5] was > 100 µM (inactive) each time. The GI50 in assay [6], in [7], in [9], in assay [19], in assay [10] and in assay [11] was > 100 µM (inactive) in each case. Also, the GI50 in [12], in [13], in assay [14], in assay [15] and in [16] was > 100 µM (inactive) each time.

In the case of `S=P(N1CCCC1)(N1CC1)N1CC1`, the GI50 in assay [1] was > 100 µM (inactive); in assay [2], > 100 µM (inactive); in [3], 71.4 µM (inactive); in assay [18] it was > 100 µM (inactive); in assay [4] it was > 100 µM (inactive); in [5], > 10 µM (inactive). The GI50 in assay [6] is > 100 µM (inactive); in assay [7] it was > 100 µM (inactive); in [8] it was 32.4 µM (inactive); in assay [9], 73.1 µM (inactive); in [10], > 100 µM (inactive); in assay [11] it was 84.1 µM (inactive). For the same molecule, the GI50 in assay [12] is 56.2 µM (inactive); in [13], > 100 µM (inactive); in assay [14] it was > 100 µM (inactive); in assay [15], > 100 µM (inactive); in assay [16], 71.6 µM (inactive).

On to `O=C(c1ccc([N+](=O)[O-])cc1[N+](=O)[O-])N(/N=C/C=C/c1ccccc1)c1nnc(-c2ccccc2)c(-c2ccccc2)n1`, for which the GI50 in assay [1] was 30.5 µM (inactive); in assay [2] it was 36.4 µM (inactive); in assay [3], 23.6 µM (inactive); in assay [18], 20.1 µM (inactive); in assay [4], 86.1 µM (inactive); in [5] it was 20.5 µM (inactive). Besides, the GI50 in assay [6] is 41.6 µM (inactive); in [7], > 100 µM (inactive); in assay [8] it was 34 µM (inactive); in [9], 24.5 µM (inactive); in [10], 30.5 µM (inactive); in assay [11] it was 94.4 µM (inactive). Moreover, the GI50 is 21.6 µM (inactive) in [12]; 32.7 µM (inactive) in assay [13]; 34.8 µM (inactive) in assay [14]; 15.2 µM (inactive) in assay [15]; 24.3 µM (inactive) in assay [16].

As to `CC1=CC2C(=O)N(c3ccccc3)C(=O)C2CC1n1[nH]c(=O)n(Cc2ccccc2)c1=O` (stereo not given), the GI50 in assay [1], in [2], in [18], in [4], in assay [5] and in assay [6] was > 100 µM (inactive) each time. The GI50 in assay [7], in assay [8], in assay [9], in assay [10], in assay [11] and in assay [12] was > 100 µM (inactive) in each case. Also, the GI50 in assay [13], in assay [14], in assay [15] and in assay [16] was > 100 µM (inactive) throughout.

As to `C#CCOCn1cnc2c(N)ncnc21`, the GI50 in assay [1], in assay [2], in [3], in assay [18], in assay [4] and in assay [5] was > 100 µM (inactive) in each case. Further, the GI50 in assay [6], in assay [7], in assay [8], in [9], in [10] and in [11] was > 100 µM (inactive) each time. Further, the GI50 in [13], in [14], in [15] and in [16] was > 100 µM (inactive) in each case.

`CN(C)CCCNC(=O)c1cc(NC(=O)c2cc(NC(=O)CCCn3c4ccccc4c4ccccc43)cn2C)cn1C`: the GI50 was 18.5 µM (inactive) in assay [1]; 15.3 µM (inactive) in [2]; 9.29 µM (inactive) in [17]; 2.02 µM (inactive) in [3]; 3.13 µM (inactive) in assay [18]; 13.6 µM (inactive) in [4]. In addition, the GI50 was 14.7 µM (inactive) in assay [5]; 2.15 µM (inactive) in assay [6]; 20.1 µM (inactive) in assay [7]; 10.1 µM (inactive) in [8]; 5.89 µM (inactive) in assay [20]; 7.71 µM (inactive) in [9]. Further, the GI50 in [10] is 19.3 µM (inactive); in assay [11], 10.5 µM (inactive); in assay [12], 11.6 µM (inactive); in assay [14], 6.28 µM (inactive); in [15], 20.4 µM (inactive); in assay [16] it was 27.2 µM (inactive).

For `C/C(CN1C(=O)c2ccccc2C1=O)=N\NS(=O)(=O)c1ccc(Br)cc1`, the GI50 was > 100 µM (inactive) in assay [1]; > 100 µM (inactive) in assay [2]; > 100 µM (inactive) in assay [3]; > 100 µM (inactive) in assay [18]; > 100 µM (inactive) in [4]; 74.8 µM (inactive) in assay [5]. Also, the GI50 in assay [6], in [7], in assay [8], in [9], in assay [10] and in assay [11] was > 100 µM (inactive) each time. The GI50 in assay [12], in [13], in assay [14], in [15] and in assay [16] was > 100 µM (inactive) each time.

In the case of `CN(CO)c1nc(N(C)CO)nc(N(C)CO)n1` [TRIMELAMOL], the GI50 in [1] is 26.8 µM (inactive); in assay [2], 19.7 µM (inactive); in assay [17], 20.1 µM (inactive); in assay [3], 27.2 µM (inactive); in assay [18], 18.7 µM (inactive); in assay [4], 20 µM (inactive). Also, the GI50 in assay [6] is 8.53 µM (inactive); in assay [7] it was 26.4 µM (inactive); in assay [20], 16.1 µM (inactive); in assay [9], 5.78 µM (inactive); in assay [19], 20.6 µM (inactive); in assay [10], 23.7 µM (inactive). The GI50 in assay [11] was 16.1 µM (inactive); in assay [12], 4.75 µM (inactive); in [14], 15.1 µM (inactive); in [16] it was 27.5 µM (inactive).

In the case of `CCC1(c2c(F)c(F)c(N)c(F)c2F)CCC(=O)NC1=O` (stereo not given), the GI50 in assay [1], in assay [2], in [3], in assay [18], in [4] and in assay [5] was > 100 µM (inactive) throughout. For the same molecule, the GI50 in [6], in assay [7], in assay [8], in assay [9], in assay [10] and in assay [11] was > 100 µM (inactive) each time. Further, the GI50 in [12], in assay [13], in assay [14], in assay [15] and in assay [16] was > 100 µM (inactive) in each case.

Regarding `Cc1ccc(C2=C(c3ccccc3)C(Br)(c3ccccc3)C(c3ccccc3)=C2c2ccc(C)cc2)cc1`, the GI50 in [1], in assay [2], in assay [3], in assay [18], in [4] and in [5] was > 100 µM (inactive) throughout. Further, the GI50 in assay [6], in assay [7], in assay [8], in assay [9], in assay [10] and in assay [11] was > 100 µM (inactive) throughout. For the same molecule, the GI50 in [12], in assay [13], in assay [14], in assay [15] and in assay [16] was > 100 µM (inactive) in each case.

Values taken from ChEMBL document CHEMBL1201862, “PubChem BioAssay data set” (2004).
